# In patent US9453028B2, “Protein kinase C inhibitors and uses thereof” (Rigel Pharmaceuticals, Inc., priority 2009, dated 2016):
# pIC50: −log10 of the molar value.
# Assays:
# PKC-epsilon = biological target: T1, PKC-epsilon (Homo sapiens, UniProt Q02156); experiment: Protein Kinase C assay (fluorescence polarization), PKC-epsilon; format: biochemical
# T1 construct: purchased Upstate Biotechnologies, Temecula, CA 14-518
# T1 sequence (Q02156 1-737): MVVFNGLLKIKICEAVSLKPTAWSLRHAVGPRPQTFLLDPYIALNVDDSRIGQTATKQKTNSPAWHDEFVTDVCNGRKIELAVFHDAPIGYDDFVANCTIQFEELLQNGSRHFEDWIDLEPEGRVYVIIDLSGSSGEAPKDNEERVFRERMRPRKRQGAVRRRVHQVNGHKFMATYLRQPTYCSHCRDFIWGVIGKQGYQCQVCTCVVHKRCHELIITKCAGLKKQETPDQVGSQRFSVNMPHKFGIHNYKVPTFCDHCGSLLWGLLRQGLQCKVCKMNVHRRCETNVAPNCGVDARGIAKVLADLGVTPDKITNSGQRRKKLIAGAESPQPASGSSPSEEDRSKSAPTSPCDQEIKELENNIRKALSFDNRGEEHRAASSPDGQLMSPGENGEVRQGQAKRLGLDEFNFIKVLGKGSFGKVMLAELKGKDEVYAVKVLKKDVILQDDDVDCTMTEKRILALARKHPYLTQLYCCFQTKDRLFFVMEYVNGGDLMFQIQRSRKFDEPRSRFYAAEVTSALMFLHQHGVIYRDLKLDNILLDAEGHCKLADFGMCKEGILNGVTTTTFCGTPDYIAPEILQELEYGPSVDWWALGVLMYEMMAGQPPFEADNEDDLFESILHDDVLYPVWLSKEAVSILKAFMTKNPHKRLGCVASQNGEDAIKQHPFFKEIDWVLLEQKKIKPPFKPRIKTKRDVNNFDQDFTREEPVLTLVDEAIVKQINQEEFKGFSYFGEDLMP
# Procedure: (§1) The inhibition of PKC activity was measured by monitoring the production of phosphorylated peptide by fluorescence polarization at different concentrations of the inhibitor. Reactions were carried out in 96-well plate format with a total volume of 20 μL containing 20 mM HEPES, pH 7.4, 5 mM MgCl2, 0.2 mM CaCl2, 1 mM DTT, 0.02% Brij-35, 0.1 mg/mL phosphatidylserine, 0.02 mg/mL dioleoyl-sn-glycerol and 5 μM each of ATP and the peptide substrate. Compounds were first diluted serially in DMSO and then transferred to a solution containing the above concentrations of HEPES, MgCl2, CaCl2, DTT, and Brij-35 to yield 5× compound solutions in 2% DMSO, which was then added to the reaction solution. Reactions were initiated by the addition of PKC at a typical concentration as described in the table below, and then allowed to incubate at room temperature for 20 minutes. At the end of this time, a combination of quench (EDTA) and detection (peptide tracer and antibody) reagents was added using the protocol of Invitrogen P2748 (Carlsbad, Calif.), a Protein Kinase C Fluorescence polarization Assay Kit. After a 30 minute period of incubation, the amount of phosphorylated peptide generated was measured by fluorescence polarization (Ex=485 nm, Em=535 nm) using a Tecan Polarian instrument (Switzerland).
# Human recombinant PKC […] is obtained from Oxford Biomedical Research and is used under the assay conditions as described under Section A.1 above.
# (§2) Several subject compounds were tested according to procedures in the “Characterization of Functional Properties” section. PKC kinase activity was measured using the procedure Section A.1 (Protein Kinase C assay) with the appropriate isoform. The whole cell assay was run according to the procedure in Section A.2 (IL-2 ELISA, Human primary T cell, anti-CD3+CD28+ Assays). […] Blank entries indicate that the IC50 was not determined.
# Human primary T cell = experiment: IL-2 ELISA, human primary T cell, anti-CD3+CD28+ whole cell assay; format: cell-based; settings: IL-2 by ELISA, human primary T cells stimulated with anti-CD3+CD28
# Procedure: 2. IL-2 ELISA, Human Primary T Cell, Anti-CD3+CD28+ Assays
# Human primary T cells were prepared as follows. Whole blood was obtained from a healthy volunteer, mixed 1:1 with PBS, layered on to Ficoll Hypaque (Amersham Pharmacia Biotech, Piscataway, N.J., Catalog #17-1440-03) in 2:1 blood/PBS:ficoll ratio and centrifuged for 30 minutes at 4° C. at 1750 rpm. The cells at the serum:ficoll interface were recovered and washed twice with 5 volumes of PBS. These freshly isolated human peripheral blood mononuclear cells were cultured in Yssel's medium containing 40 U/mL IL2 in a flask pre-coated with 1 μg/mL αCD3 and 5 μg/mL αCD28 (Anti-Human CD3, BD Pharmingen Catalog #555336, Anti-Human CD28, Beckman Coulter Catalog #1M1376). The cells were stimulated for 3-4 days, then transferred to a fresh flask and maintained in RPMI (RPMI-1640 with L-Glutamine; Mediatech, Inc., Herndon Va., cat. #10-040-CM) with 10% FBS and 40 U/mL IL-2. The primary T-cells were then washed twice with PBS to remove the IL-2.
# Human primary T cells (100,000 cells per well) were pre-incubated with or without test compound in Yssel's medium for 1 hr at 37° C. Cells were then stimulated by transferring them to round-bottom 96-well plates pre-coated with 1 μg/ml αCD3 and 5 μg/ml αCD28. For counter assay, cells were instead stimulated by adding 8× stock solutions of PMA and ionomycin in Yssels (for final concentrations of 0.5 ng/ml PMA and 0.1 μM ionomycin, both from Calbiochem). Cells were incubated at 37° C. for 24 hours before 100 μL supernatants were harvested for quantification of IL-2 by ELISA using Human IL-2 Duoset ELISA Kit from R and D Systems, Cat. # DY202E.
# as §2
# PKC-delta = biological target: T2, PKC-delta (Homo sapiens, UniProt Q05655); experiment: Protein Kinase C assay (fluorescence polarization), PKC-delta; format: biochemical
# T2 construct: purchased Oxford Biomedical Research
# Procedure: as §1
# Human recombinant PKC δ is obtained from Oxford Biomedical Research and is used under the assay conditions as described under Section A.1 above.
# as §2
# PKC-beta = biological target: T3, PKC-beta (Homo sapiens, UniProt P05771); experiment: Protein Kinase C assay (fluorescence polarization), PKC-beta; format: biochemical
# T3 construct: purchased Oxford Biomedical Research
# Procedure: as §1
# Human recombinant PKC β1 is obtained from Oxford Biomedical Research and is used under the assay conditions as described under Section A.1 above.
# as §2
# PKC-theta = biological target: T4, PKC-theta (Homo sapiens, UniProt Q04759); experiment: Protein Kinase C assay (fluorescence polarization), PKC-theta; format: biochemical
# T4 construct: purchased Upstate Biotechnologies, Temecula, CA 14-444
# Procedure: as §1
# Human recombinant PKC θ is used under the assay conditions as described above.
# as §2
# PKC-alpha = biological target: T5, PKC-alpha (Homo sapiens, UniProt P17252); experiment: Protein Kinase C assay (fluorescence polarization), PKC-alpha; format: biochemical
# T5 construct: purchased Oxford Biomedical Research
# Procedure: as §1
# Human recombinant PKC α is obtained from Oxford Biomedical Research and is used under the assay conditions as described under Section A.1 above.
# as §2
# T2 sequence (Q05655 whole entry): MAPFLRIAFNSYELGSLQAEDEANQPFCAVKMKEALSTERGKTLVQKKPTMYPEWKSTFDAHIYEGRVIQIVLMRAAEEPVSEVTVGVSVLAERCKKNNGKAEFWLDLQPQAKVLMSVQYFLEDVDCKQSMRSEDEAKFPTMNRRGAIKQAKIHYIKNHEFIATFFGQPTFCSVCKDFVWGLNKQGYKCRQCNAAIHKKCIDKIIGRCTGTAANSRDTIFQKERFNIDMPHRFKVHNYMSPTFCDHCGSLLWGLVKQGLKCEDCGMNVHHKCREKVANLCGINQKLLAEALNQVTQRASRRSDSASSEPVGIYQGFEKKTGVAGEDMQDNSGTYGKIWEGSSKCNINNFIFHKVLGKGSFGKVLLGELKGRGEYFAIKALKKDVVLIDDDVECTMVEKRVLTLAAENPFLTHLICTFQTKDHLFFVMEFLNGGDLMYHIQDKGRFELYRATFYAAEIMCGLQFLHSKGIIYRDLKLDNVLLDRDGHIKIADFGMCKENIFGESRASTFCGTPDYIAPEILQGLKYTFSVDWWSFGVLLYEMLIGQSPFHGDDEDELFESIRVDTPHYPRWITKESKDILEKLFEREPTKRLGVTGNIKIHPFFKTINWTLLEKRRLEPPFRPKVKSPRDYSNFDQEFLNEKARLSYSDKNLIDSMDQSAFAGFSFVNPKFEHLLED
# T3 sequence (P05771 whole entry): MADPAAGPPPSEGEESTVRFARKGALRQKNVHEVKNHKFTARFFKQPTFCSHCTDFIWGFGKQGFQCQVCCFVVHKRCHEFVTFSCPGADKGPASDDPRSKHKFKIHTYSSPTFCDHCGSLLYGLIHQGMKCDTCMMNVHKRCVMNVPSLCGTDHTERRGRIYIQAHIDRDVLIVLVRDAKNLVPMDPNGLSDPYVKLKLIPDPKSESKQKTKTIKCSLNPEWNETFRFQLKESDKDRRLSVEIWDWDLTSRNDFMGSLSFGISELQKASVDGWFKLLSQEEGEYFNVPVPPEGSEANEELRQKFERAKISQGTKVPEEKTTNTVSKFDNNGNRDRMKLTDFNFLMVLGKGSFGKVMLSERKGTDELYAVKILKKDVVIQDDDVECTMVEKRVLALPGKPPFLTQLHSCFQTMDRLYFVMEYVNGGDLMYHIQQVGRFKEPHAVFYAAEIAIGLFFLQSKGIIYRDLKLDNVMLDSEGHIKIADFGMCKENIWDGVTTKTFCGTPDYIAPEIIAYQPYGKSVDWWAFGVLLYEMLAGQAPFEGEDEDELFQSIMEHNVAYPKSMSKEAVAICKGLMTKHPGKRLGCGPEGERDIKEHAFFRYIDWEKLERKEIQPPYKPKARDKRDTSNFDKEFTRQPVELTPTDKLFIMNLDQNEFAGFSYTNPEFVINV
# T4 sequence (Q04759 whole entry): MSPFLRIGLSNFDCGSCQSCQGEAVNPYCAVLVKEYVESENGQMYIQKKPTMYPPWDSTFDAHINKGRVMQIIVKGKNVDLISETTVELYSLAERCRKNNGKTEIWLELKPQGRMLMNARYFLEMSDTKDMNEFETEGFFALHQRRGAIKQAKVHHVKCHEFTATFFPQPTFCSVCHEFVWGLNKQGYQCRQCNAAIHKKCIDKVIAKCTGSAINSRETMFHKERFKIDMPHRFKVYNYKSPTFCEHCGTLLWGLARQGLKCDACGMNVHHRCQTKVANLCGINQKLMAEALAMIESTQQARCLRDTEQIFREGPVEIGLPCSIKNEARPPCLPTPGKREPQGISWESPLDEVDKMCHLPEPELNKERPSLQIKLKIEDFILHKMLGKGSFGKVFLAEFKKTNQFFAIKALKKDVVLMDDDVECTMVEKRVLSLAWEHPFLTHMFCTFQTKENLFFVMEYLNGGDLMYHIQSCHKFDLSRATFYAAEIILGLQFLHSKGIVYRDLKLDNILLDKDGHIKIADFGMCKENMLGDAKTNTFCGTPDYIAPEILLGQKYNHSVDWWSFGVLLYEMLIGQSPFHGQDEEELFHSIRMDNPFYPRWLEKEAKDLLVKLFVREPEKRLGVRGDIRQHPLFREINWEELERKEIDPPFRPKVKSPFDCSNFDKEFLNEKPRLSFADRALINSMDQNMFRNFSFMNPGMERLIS
Compound,pIC50 (PKC-epsilon),pIC50 (Human primary T cell),pIC50 (PKC-delta),pIC50 (PKC-beta),pIC50 (PKC-theta),pIC50 (PKC-alpha),pIC50 (Human primary T cell; T-cell)
"CC1C[C@@H](CNc2nc(Nc3ccc4c(c3)-n3nnnc3C(C)(C)O4)ncc2F)C(C)(C)N1 (stereo partly drawn) [Compound 2-7, N2-(4,4-dimethyl-4H-benzo[b]tetrazolo[1,5-d][1,4]oxazin-8-yl)-5-fluoro-N4-(((3S)-2,2,5-trimethylpyrrolidin-3-yl)methyl)pyrimidine-2,4-diamine]",> 6.60,> 6.60,> 6.60,> 6.60,> 6.60,> 6.60,–
"CC1C[C@H](CNc2nc(Nc3ccc4c(c3)-n3nnnc3C(C)(C)O4)ncc2F)C(C)(C)N1 (stereo partly drawn) [Compound 2-8, N2-(4,4-dimethyl-4H-benzo[b]tetrazolo[1,5-d][1,4]oxazin-8-yl)-5-fluoro-N4-(((3R)-2,2,5-trimethylpyrrolidin-3-yl)methyl)pyrimidine-2,4-diamine]",> 6.60,6.30 to 6.60,> 6.60,6.30 to 6.60,> 6.60,> 6.60,–
"CC1(C)CC(Nc2nc(Nc3ccc4c(c3)-n3nnnc3C(C)(C)O4)ncc2F)CC(C)(C)N1 [Compound 1-7, N2-(4,4-dimethyl-4H-benzo[b]tetrazolo[1,5-d][1,4]oxazin-8-yl)-5-fluoro-N4-(2,2,6,6-tetramethylpiperidin-4-yl)pyrimidine-2,4-diamine]",> 6.60,–,> 6.60,> 6.60,> 6.60,> 6.60,> 6.60
"CN1C(C)(C)CC(Nc2nc(Nc3ccc4c(c3)-n3nnnc3CO4)ncc2F)CC1(C)C [Compound 1-2, N2-(4H-benzo[b]tetrazolo[1,5-d][1,4]oxazin-8-yl)-5-fluoro-N4-(1,2,2,6,6-pentamethylpiperidin-4-yl)pyrimidine-2,4-diamine]",> 6.60,–,> 6.60,> 6.60,> 6.60,> 6.60,> 6.60
"CC1(C)CC(Nc2nc(Nc3ccc4c(c3)-n3nnnc3C3(CCC3)O4)ncc2F)CC(C)(C)N1 [Compound 1-11, N2-{2,1-Spiro-butane-4H-tetrazolo[5,1-c][1,4]benzoxazin-8-yl}-5-fluoro-N4-(2,2,6,6-tetramethylpiperidin-4-yl)-2,4-pyrimidinediamine]",> 6.60,–,> 6.60,> 6.60,> 6.60,> 6.60,> 6.60
"N2-(4H-benzo[b]pyrrolo[1,2-d][1,4]oxazin-8-yl)-5-fluoro-N4-(2,2,6,6-tetramethylpiperidin-4-yl)pyrimidine-2,4-diamine [Compound 1-3]",–,5.30 to 6.00,–,–,–,–,–
"CC1(C)CC(CNc2nc(Nc3ccc4c(c3)-n3nnnc3CO4)ncc2F)C(C)(C)N1 (stereo not shown) [Compound 2-1, N2-(4H-benzo[b]tetrazolo[1,5-d][1,4]oxazin-8-yl)-5-fluoro-N4-((2,2,5,5-tetramethylpyrrolidin-3-yl)methyl)pyrimidine-2,4-diamine]",> 6.60,–,> 6.60,> 6.60,> 6.60,> 6.60,> 6.60
"CN1C(C)(C)CC(Nc2nc(Nc3ccc4c(c3)-n3nnnc3C3(CCC3)O4)ncc2F)CC1(C)C [Compound 1-12, N2-{2,1-Spiro-butane-4H-tetrazolo[5,1-c][1,4]benzoxazin-8-yl}-5-fluoro-N4-(1,2,2,6,6-pentamethylpiperidin-4-yl)-2,4-pyrimidinediamine]",> 6.60,> 6.60,> 6.60,> 6.60,> 6.60,> 6.60,–
"CC1(C)CC(Nc2nc(Nc3ccc4c(c3)-n3nnnc3CO4)ncc2F)CC(C)(C)N1 [Compound 1-1, N2-(4H-benzo[b]tetrazolo[1,5-d][1,4]oxazin-8-yl)-5-fluoro-N4-(2,2,6,6-tetramethylpiperidin-4-yl)pyrimidine-2,4-diamine]",> 6.60,–,> 6.60,> 6.60,> 6.60,> 6.60,> 6.60
"CC1(C)CC(Nc2nc(Nc3ccc4c(c3)-c3nnnn3C(C)(C)O4)ncc2F)CC(C)(C)N1 [Compound 1-9, N2-(5,5-dimethyl-5H-benzo[e]tetrazolo[1,5-c][1,3]oxazin-9-yl)-5-fluoro-N4-(2,2,6,6-tetramethylpiperidin-4-yl)pyrimidine-2,4-diamine]",–,–,–,–,–,–,6.00 to 6.30
"CN1C(C)(C)CC(CNc2nc(Nc3ccc4c(c3)-n3nnnc3CO4)ncc2F)C1(C)C (stereo not shown) [Compound 2-2, N2-(4H-benzo[b]tetrazolo[1,5-d][1,4]oxazin-8-yl)-5-fluoro-N4-((1,2,2,5,5-pentamethylpyrrolidin-3-yl)methyl)pyrimidine-2,4-diamine]",> 6.60,–,> 6.60,> 6.60,> 6.60,> 6.60,> 6.60
CC1Oc2ccc(Nc3ncc(F)c(NC4CC(C)(C)NC(C)(C)C4)n3)cc2-n2nnnc21 (stereo not shown) [Compound 1-17],> 6.60,–,> 6.60,> 6.60,> 6.60,> 6.60,> 6.60
"CN1C(C)(C)CC(Nc2nc(Nc3ccc4c(c3)-c3nnnn3C(C)(C)O4)ncc2F)CC1(C)C [Compound 1-10, N2-(5,5-dimethyl-5H-benzo[e]tetrazolo[1,5-c][1,3]oxazin-9-yl)-5-fluoro-N4-(1,2,2,6,6-pentamethylpiperidin-4-yl)pyrimidine-2,4-diamine]",–,–,–,–,–,–,> 6.60
"N2-(4H-benzo[b]pyrrolo[1,2-d][1,4]oxazin-8-yl)-5-fluoro-N4-(1,2,2,6,6-pentamethylpiperidin-4-yl)pyrimidine-2,4-diamine [Compound 1-4]",–,5.30 to 6.00,–,–,–,–,–
